Experimental data as given in patent US20040171613A1, “Therapeutic agent for non-immediate type allergic diseases” (JAPAN TOBACCO INC., priority 2001, published 2004).

Columns and labels:
[1] = tested on: IgE-dependent allergic dermatitis; conditions: mouse, in vivo, po
Description: Using a triphase dermatitis model that can be induced by antigen in mouse passively sensitizationed with IgE, the actions of CB2 inverse agonist and CB2 agonist were examined.
*Animal: 8 to 10 weeks-old Female BALB/c mouse (Japan SLC Inc.) was used.
Preparation of solvent: MC was dissolved in distilled water to prepare an aqueous 0.5% MC solution.
Anti-DNP IgE (antibody against DNP; Yamasa Corp.) was prepared to 15 μg/mL with physiological saline. 0.2 mL of the resulting solution was given through the caudal vein to the mouse.
Antigen preparation: 0.15% (w/v) of DNFB (2,4-dinitrofluorobenzene) was prepared in a mixed solution of acetone and olive oil (3:1, v/v) on needed basis.
Antigen application: 25 μl of the antigen solution was applied on each side of both of the ears 24 hours after the administration of the anti-DNP IgE.
From the next day of the antigen application to day 8 after the antigen application, 10 mL/kg test compound was orally administered once a day 9 times in total. On the day of antigen application, the test compound was administered one hour before the antigen application and the test compound was administered one hour before the measurement of the thickness of the ear on day 8 after the antigen application.
Before and 8 days after the antigen application, the thickness of the ear was measured with a dial thickness gauge (Mitutoyo Corp.). The difference between the value measured before the antigen application and at each time point was used as an index of swelling.
After the measurement of ear swelling, spleen and thymus were harvested to weigh their wet weights.

[2] = tested on: rat mast cell line RBL-2H3; test: leukotriene production from rat mast cell line; format: cell-based; conditions: anti-DNP IgE sensitization, DNP-BSA stimulation; 0.1 to 10 μM
Description: Then, the resulting solutions were diluted with E-MEM (EAGLE-MEM; Nikken Biomedical Lab.) to prepare solutions of 100 to 1 μM (1% DMSO solution). To act the solutions on cells, they were further diluted to 10 μM to 0.1 μM (0.1% DMSO solution).
1 mM PIPES (Dojin Molecular Technologies, Inc.), […], 0.5 mM KCl, 0.06 mM MgCl2, 0.1 mM CaCl2, 0.55 mM glucose and 0.1% BSA (bovine serum albumin; Sigma) were prepared with purified water and then adjusted to pH 7.4 using NaOH.
1 mg/mL anti-DNP IgE (monoclonal murine anti-DNP IgE; Yamasa Corp.) was diluted to 1000 fold with the PIPES buffer to prepare a 1 μg/mL solution.
10 mg/mL DNP-BSA was diluted to a concentration of 10 μg/mL with the PIPES buffer.
Culture medium: E-MEM containing heat-inactivated 10% FCS (fetal calf serum; Morgate Biotech), 100 units/mL penicillin and 100 μg/mL streptomycin (in the form of penicillin/streptomycin; GIBCO).
After centrifuging and washing rat mast cell line RBL-2H3 (Human Science; 1×10^6cells/mL/tube) with the above-described culture medium, the cells were resuspended in the culture medium and cultured in a 75-cm^2 flask (Falcon 353136) for 3 days. […]
30 minutes after the antigen stimulation, 20 μL/well supernatant was recovered and the LTs amount was measured according to manufacturer's protocol of LTs EIA kit (Amersham Pharmacia).

CCCCCOc1c(OC)ccc2cc(C(=O)NCc3ccc4c(c3)OCO4)c(=O)[nH]c12 [Compound A, N-(benzo[1,3]dioxol-5-ylmethyl)-7-methoxy-2-oxo-8-pentyloxy-1,2-dihydroquinoline-3-carboxamide] was tested, and the “wet weight of the spleen” value [1] was “no apparent changes”, the “wet weight of the thymus” value [1] was “no apparent changes” and the “leukotriene production (C4/D4/E4)” value [2] was “suppressive effect”.
